This note sets out measurements from ChEMBL document CHEMBL2417433, “Synthesis and biological evaluations of a monomethylauristatin E glucuronide prodrug for selective cancer chemotherapy” (Eur J Med Chem, 2013).

For data set [1], the system named is A549. The experiment in a line: Antiproliferative activity against human A549 cells after 4 days by XTT assay in presence of Escherichia coli beta-glucuronidase. The following applies: A549, 96 h. The data set is classed as functional, cell-based.
The test system of data set [2] is MDA-MB-231. The experiment in a line: Antiproliferative activity against human MDA-MB-231 cells after 4 days by XTT assay in presence of Escherichia coli beta-glucuronidase. The data set is classed as functional, cell-based. The following applies: MDA-MB-231, 96 h.
Data set [3] has as its system KB. Nature of the data set: Ratio of IC50 for human KB cells to IC50 for human KB cells in presence of Escherichia coli beta-glucuronidase. The data set is classed as functional.
Data set [4] relates to A549. Nature of the data set: Ratio of IC50 for human A549 cells to IC50 for human A549 cells in presence of Escherichia coli beta-glucuronidase. The data set is classed as functional.
Data set [5] deals with KB. The experiment in a line: Antiproliferative activity against human KB cells after 4 days by XTT assay in presence of Escherichia coli beta-glucuronidase. The data set is classed as functional, cell-based. Particulars: 96 h. A general note: Tetrazolium assays rely on reduction of a dye to a coloured formazan, in cell work by metabolically active cells.
The test system of data set [6] is MDA-MB-231. Nature of the data set: Antiproliferative activity against human MDA-MB-231 cells after 4 days by XTT assay. The data set is classed as functional, cell-based. The following applies: MDA-MB-231, 96 h.
The subject of data set [7] is Mus musculus. The experiment in a line: Toxicity in mouse LLC cells allografted C57/BL6 mouse model assessed as change in body weight at 0.5 mg/kg, iv administered on day 7, 11 and 14 post transplantation measured on day 20. It is filed as organism-based. Details: dose 0.5 mg/kg, route intravenous. Particulars: in vivo.
A short description of data set [8]: Prodrug conversion in phosphate buffer at pH 7 assessed as MMAE and 4-hydroxy-3-nitrobenzyl alcohol formation after 40 mins by HPLC method in presence of Escherichia coli beta-glucuronidase. The data set is classed as physicochemical. The following applies: pH 7, 40 min.
The test system of data set [9] is A549. The experiment in a line: Antiproliferative activity against human A549 cells after 4 days by XTT assay. It is filed as functional, cell-based. Particulars: A549, 96 h.
For data set [10], the system named is MDA-MB-231. Nature of the data set: Ratio of IC50 for human MDA-MB-231 cells to IC50 for human MDA-MB-231 cells in presence of Escherichia coli beta-glucuronidase. It is filed as functional.
Data set [11] concerns KB. Nature of the data set: Antiproliferative activity against human KB cells after 4 days by XTT assay. It is filed as functional, cell-based. The following applies: 96 h.
Data set [12] deals with Serum. Nature of the data set: Stability in bovine serum at 0.5 mg after 48 hrs by HPLC method. It is filed as ADME, cell-free, Bos taurus. Particulars: cattle.
The nature of data set [13]: Cytotoxicity against human non-small cell lung cancer cells at 1 nM after 4 days by XTT assay in presence of Escherichia coli beta-glucuronidase. The data set is classed as functional, Cancer cell lines.
Data set [14] deals with Cancer cell lines. Nature of the data set: Cytotoxicity against human non-small cell lung cancer cells at 0.5 to 1 nM after 4 days by XTT assay. The data set is classed as functional, cell-based.
Data set [15] deals with Lewis lung carcinoma cell line. Nature of the data set: Antitumor activity against mouse LLC cells allografted in C57/BL6 mouse assessed as reduction in tumor weight at 0.5 mg/kg, iv administered on day 7, 11 and 14 post transplantation measured on day 20 relative to control. It is filed as functional.
The subject of data set [16] is Lewis lung carcinoma cell line. Nature of the data set: Antitumor activity against mouse LLC cells allografted in C57/BL6 mouse assessed as reduction in tumor weight at 0.1 mg/kg, iv administered on day 7, 11 and 14 post transplantation measured on day 20 relative to control. It is filed as functional.

SMILES strings stand for the structures. pIC50: −log10 of the molar value. Calls of active or inactive are those of the source. The calls are words filed in the database; no cut-off is given here. Non-standard residues stand in square brackets, D forms with d. Residues, ends and D or L forms follow the SMILES beside them. *: point of attachment. Dolaproine = CO[C@@H]([C@@H]1CCCN1)[C@@H](C)C(=O)O; Dil = CC[C@H](C)[C@H](NC)[C@@H](CC(=O)O)OC; X1 = C[C@@H](N*)[C@@H](O)c1ccccc1; NMeV = CN[C@H](C(=O)O)C(C)C

Usually pIC50 stands for the IC50 on a negative log10 scale, so that one unit is a factor of ten. In the case of `CC[C@H](C)[C@@H]([C@@H](CC(=O)N1CCC[C@H]1[C@H](OC)[C@@H](C)C(=O)N[C@H](C)[C@@H](O)c1ccccc1)OC)N(C)C(=O)[C@@H](NC(=O)[C@H](C(C)C)N(C)C(=O)OCc1ccc(O[C@@H]2O[C@H](C(=O)O)[C@@H](O)[C@H](O)[C@H]2O)c([N+](=O)[O-])c1)C(C)C`, the negative logarithm of the IC50 (pIC50) was 9.28 in data set [1]; 9.66 in data set [2]; 9.80 in [5]; 7.68 in [6]; 7.63 in data set [9]; 7.68 in data set [11]. The “Ratio IC50” value in data set [3], in [4] and in [10] was 40 throughout. Besides, the Activity result in data set [7] is “Non-toxic”; in [13] it was 75%. In data set [8], the Drug metabolism entry was “Active”. Also, the Stability entry in data set [12] was “Stable”. Further, in data set [14], the outcome was inactive. Also, in [15], the “fold change (FC)” value was 1.5.
On to `CC[C@H](C)[C@@H]([C@@H](CC(=O)N1CCC[C@H]1[C@H](OC)[C@@H](C)C(=O)N[C@H](C)[C@@H](O)c1ccccc1)OC)N(C)C(=O)[C@@H](NC(=O)[C@@H](NC)C(C)C)C(C)C` (H-[NMeV]V[Dil][Dolaproine]-X1), for which the pIC50 was 9.60 in [6], 9.23 in data set [9] and 9.72 in data set [11]. The “fold change (FC)” value in data set [16] amounted to 1.5. Besides, the result in data set [14] was Active.
